These results are taken from patent US20100120690A1, “Polypeptides Having Antimicrobial Activity and Polynucleotides Encoding Same” (Novozymes Adenium Biotech A/S, priority 2005, published 2010).

In the assay the test system is Staphylococcus carnosus ATCC51365. As to the kind of experiment: Yeast screening assay: radial diffusion assay of yeast supernatants. The class given is cell-based. The settings on record: yeast supernatant, clearing zone in radial diffusion assay. The arrangement: key: An activity of 3 is better than Plectasin; An activity of 2 corresponds to the activity of Plectasin; 1 is worse than Plectasin. As for the experimental part:
A range of antimicrobial polypeptides, which are variants of SEQ ID NO: 1 (Plectasin), were tested for antimicrobial activity by expressing them in S. cerevisae and screening the supernatant of the yeast transformants for antimicrobial activity against Staphylococcus carnosus ATCC51365.
Radial Diffusion Assay was carried out as described in Methods in Molecular Biology, Vol. 78, Antibacterial peptide protocol, William M. Shafer, Human Press.
200-300 yeast transformant colonies were plated on 14 cm round plates containing 25 mL SC growth medium supplemented with 1.5% galactose, 0.5% glucose and 1.5% agarose. Plates were incubated for three hours at room temperature, overlaid with 25 mL of the same growth medium and allowed to grow for three days at 30° C. Then the plates were overlaid with 25 mL of LB growth medium containing 1.5% agarose and 10^5 cells of the indicator strain Staphylococcus carnosus and incubated at 30° C. overnight to allow growth of the bacterial cells. Next day, the plates were stained with 1.5 mM MTT to facilitate visualization of the clearing zones.
Yeast colonies creating clearing zones were transferred to microtiter plates containing 200 micro-L of SC growth medium supplemented with 2% glucose and ampicillin (100 mg/L). Such plates designated “master plates” were incubated for 2 days at 30° C. with shaking at 450 rpm to allow yeast growth.
10 micro-L SC growth medium from each well of the master plates were transferred to new microtiter plates containing 200 micro-L SC growth medium with 1.5% galactose and 0.5% glucose. These plates were called daughter plates and were incubated for 3 days at 30° C. under 450 rpm shaking to allow yeast growth and peptide synthesis.
Finally a Radial Diffusion Assay (RDA) was performed following the protocol described in Methods in Molecular Biology to analyse and quantify the antimicrobial activity of the yeast supernatants against S. carnosus.
Briefly, 30 mL of minimal underlay medium containing 1% agarose and 5×10^5 cfu/mL of S. carnosus was poured in an omnitray plate (Nunc, 242811). A Nunc TSP plate (#445497) was inserted immediately on the plate to allow a 96 well pattern formation. Once the media had solidified, the TSP plate was removed and 10 micro-L of yeast supernatant samples were applied on the holes. Plates were incubated 3 hours at 37° C. and overlaid with 15 mL of LB agar growth medium. Finally, plates were incubated overnight at 37° C. and coloured with 1.5 mM MTT to visualize the clearing zones.
Inspection and measurements of the clearing zones was performed on the plates. The corresponding yeast clones resulting in clearing zones of similar or increased size than the clones encoding for wild type plectasin were picked from the master plates and transferred to agar plates containing SC growth medium with 2% glucose and ampicillin (100 mg/L). Such plates were incubated for further 2 days at 30° C. to allow yeast growth. Subsequently, colony PCR was performed followed by sequence analysis to identify amino acid changes in the plectasin sequence.
An activity of 2 corresponds to the activity of Plectasin. An activity of 3 is better than Plectasin, and 1 is worse than Plectasin.
In the case of “GFGCKGPWDEGDMQCHNHCKSIKGYKGGYCAKGGFVCKCY [N5K + D11G]”, the “Activity (antimicrobial activity relative to the activity of plectasin)” value is listed as 3.

As for “GFGCLGPWDEDDMQCHNHCKSIKGYKGGYCAKGGFVCKCY [Mutation N5L]”, the “Activity (antimicrobial activity relative to the activity of plectasin)” value worked out at 2.

Take “GFGCMGPWDEDDMQCHNHCKSIKGYKGGYCAKGGFVCKCY [Mutation N5M]”: the “Activity (antimicrobial activity relative to the activity of plectasin)” value is listed as 2.

For “GFGCNAPWDEDDMQCHNHCKSIKGYKGGYCAKGGFVCKCY [Mutation G6A]”, the “Activity (antimicrobial activity relative to the activity of plectasin)” value was found to be 2.

As to “GFGCNGAWDEDDMQCHNHCKSIKGYKGGYCAKGGFVCKCY [Mutation P7A]”, the “Activity (antimicrobial activity relative to the activity of plectasin)” value was 2.

In the case of “GFGCNGKWDEDDMQCHNHCKSIKGYKGGYCAKGGFVCKCY [Mutation P7K]”, the “Activity (antimicrobial activity relative to the activity of plectasin)” value was 3.

Take “GFGCNGLWDEDDMQCHNHCKSIKGYKGGYCAKGGFVCKCY [Mutation P7L]”: the “Activity (antimicrobial activity relative to the activity of plectasin)” value came out at 2.

For the sequence “GFGCNGPRDEDDMQCHNHCKSIKGYKGGYCAKGGFVCKCY [Mutation W8R]”, the “Activity (antimicrobial activity relative to the activity of plectasin)” value amounted to 3.

Take “GFGCNGPRDEDDRQCHNHCKSIKGYKGGYCAKGGFVCKCY [W8R + M13R]”: the “Activity (antimicrobial activity relative to the activity of plectasin)” value is 3.

Take “GFGCNGPWAEDDMQCHNHCKSIKGYKGGYCAKGGFVCKCY [Mutation D9A]”: the “Activity (antimicrobial activity relative to the activity of plectasin)” value is reported as 3.

In the case of “GFGCNGPWCEDDMQCHNHCKSIKGYKGGYCAKGGFVCKCY [Mutation D9C]”, the “Activity (antimicrobial activity relative to the activity of plectasin)” value was 2.

With “GFGCNGPWDADDMQCHNHCKSIKGYKGGYCAKGGFVCKCY [Mutation E10A]”, the “Activity (antimicrobial activity relative to the activity of plectasin)” value was 2.

For the sequence “GFGCNGPWDCDDMQCHNHCKSIKGYKGGYCAKGGFVCKCY [Mutation E10C]”, the “Activity (antimicrobial activity relative to the activity of plectasin)” value is on record as 2.

For “GFGCNGPWDEADMQCHNHCKSIKGYKGGYCAKGGFVCKCY [Mutation D11A]”, the “Activity (antimicrobial activity relative to the activity of plectasin)” value is given as 2.

As for “GFGCNGPWDECDMQCHNHCKSIKGYKGGYCAKGGFVCKCY [Mutation D11C]”, the “Activity (antimicrobial activity relative to the activity of plectasin)” value is 2.

In the case of “GFGCNGPWDEDDAQCHNHCKSIKGYKGGYCAKGGFVCKCY [Mutation M13A]”, the “Activity (antimicrobial activity relative to the activity of plectasin)” value amounted to 2.

Take “GFGCNGPWDEDDFQCHNHCKSIKGYKGGYCAKGGFVCKCY [Mutation M13F]”: the “Activity (antimicrobial activity relative to the activity of plectasin)” value turned out to be 2.

Take “GFGCNGPWDEDDGQCHNHCKSIKGYKGGYCAKGGFVCKCY [Mutation M13G]”: the “Activity (antimicrobial activity relative to the activity of plectasin)” value was 2.

Turning to “GFGCNGPWDEDDLQCHNHCKSIKGYKGGYCAKGGFVCKCY [Mutation M13L]”, the “Activity (antimicrobial activity relative to the activity of plectasin)” value came to 2.

Regarding “GFGCNGPWDEDDMACHNHCKSIKGYKGGYCAKGGFVCKCY [Mutation Q14A]”, the “Activity (antimicrobial activity relative to the activity of plectasin)” value is 2.

“GFGCNGPWDEDDMCCHNHCKSIKGYKGGYCAKGGFVCKCY [Mutation Q14C]”: the “Activity (antimicrobial activity relative to the activity of plectasin)” value amounted to 2.

As for “GFGCNGPWDEDDMHCHNHCKSIKGYKGGYCAKGGFVCKCY [Mutation Q14H]”, the “Activity (antimicrobial activity relative to the activity of plectasin)” value was determined as 3.

Consider “GFGCNGPWDEDDMICHNHCKSIKGYKGGYCAKGGFVCKCY [Mutation Q14I]”, for which the “Activity (antimicrobial activity relative to the activity of plectasin)” value was 2.

For the sequence “GFGCNGPWDEDDMKCHNHCKSIKGYKGGYCAKGGFVCKCY [Mutation Q14K]”, the “Activity (antimicrobial activity relative to the activity of plectasin)” value stood at 2.

As to “GFGCNGPWDEDDMMCHNHCKSIKGYKGGYCAKGGFVCKCY [Mutation Q14M]”, the “Activity (antimicrobial activity relative to the activity of plectasin)” value is 2.

Regarding “GFGCNGPWDEDDMPCHNHCKSIKGYKGGYCAKGGFVCKCY [Mutation Q14P]”, the “Activity (antimicrobial activity relative to the activity of plectasin)” value is reported as 2.

Consider “GFGCNGPWDEDDMQCHNACKSIKGYKGGYCAKGGFVCKCY [Mutation H18A]”, for which the “Activity (antimicrobial activity relative to the activity of plectasin)” value was found to be 2.

Regarding “GFGCNGPWDEDDMQCHNFCKSIKGYKGGYCAKGGFVCKCY (Synthetic antimicrobial polypeptide) [Mutation H18F]”, the “Activity (antimicrobial activity relative to the activity of plectasin)” value was 2.

For the sequence “GFGCNGPWDEDDMQCHNHCKSIKAYKGGYCAKGGFVCKCY [Mutation G24A]”, the “Activity (antimicrobial activity relative to the activity of plectasin)” value worked out at 2.

With “GFGCNGPWDEDDMQCHNHCKSIKFYKGGYCAKGGFVCKCY [Mutation G24F]”, the “Activity (antimicrobial activity relative to the activity of plectasin)” value is given as 2.

As to “GFGCNGPWDEDDMQCHNHCKSIKGHKGGYCAKGGFVCKCY [Mutation Y25H]”, the “Activity (antimicrobial activity relative to the activity of plectasin)” value worked out at 2.

Turning to “GFGCNGPWDEDDMQCHNHCKSIKGKKGGYCAKGGFVCKCY [Mutation Y25K]”, the “Activity (antimicrobial activity relative to the activity of plectasin)” value was determined as 2.

Regarding “GFGCNGPWDEDDMQCHNHCKSIKGLKGGYCAKGGFVCKCY [Mutation Y25L]”, the “Activity (antimicrobial activity relative to the activity of plectasin)” value stood at 2.

Regarding “GFGCNGPWDEDDMQCHNHCKSIKGMKGGYCAKGGFVCKCY [Mutation Y25M]”, the “Activity (antimicrobial activity relative to the activity of plectasin)” value is on record as 2.

For the sequence “GFGCNGPWDEDDMQCHNHCKSIKGNKGGYCAKGGFVCKCY [Mutation Y25N]”, the “Activity (antimicrobial activity relative to the activity of plectasin)” value worked out at 2.

Take “GFGCNGPWDEDDMQCHNHCKSIKGQKGGYCAKGGFVCKCY [Mutation Y25Q]”: the “Activity (antimicrobial activity relative to the activity of plectasin)” value turned out to be 2.

Regarding “GFGCNGPWDEDDMQCHNHCKSIKGSKGGYCAKGGFVCKCY [Mutation Y25S]”, the “Activity (antimicrobial activity relative to the activity of plectasin)” value is on record as 2.

As for “GFGCNGPWDEDDMQCHNHCKSIKGVKGGYCAKGGFVCKCY [Mutation Y25V]”, the “Activity (antimicrobial activity relative to the activity of plectasin)” value is 2.

Turning to “GFGCNGPWDEDDMQCHNHCKSIKGYFGGYCAKGGFVCKCY [Mutation K26F]”, the “Activity (antimicrobial activity relative to the activity of plectasin)” value amounted to 2.

Take “GFGCNGPWDEDDMQCHNHCKSIKGYHGGYCAKGGFVCKCY [Mutation K26H]”: the “Activity (antimicrobial activity relative to the activity of plectasin)” value amounted to 2.

On to “GFGCNGPWDEDDMQCHNHCKSIKGYKGGACAKGGFVCKCY [Mutation Y29A]”, for which the “Activity (antimicrobial activity relative to the activity of plectasin)” value was determined as 2.

With “GFGCNGPWDEDDMQCHNHCKSIKGYKGGFCAKGGFVCKCY [Mutation Y29F]”, the “Activity (antimicrobial activity relative to the activity of plectasin)” value worked out at 3.

With “GFGCNGPWDEDDMQCHNHCKSIKGYKGGFCARGGFVCKCY [Y29F + K32R]”, the “Activity (antimicrobial activity relative to the activity of plectasin)” value amounted to 2.

For “GFGCNGPWDEDDMQCHNHCKSIKGYKGGHCAKGGFVCKCY [Mutation Y29H]”, the “Activity (antimicrobial activity relative to the activity of plectasin)” value is on record as 2.

Consider “GFGCNGPWDEDDMQCHNHCKSIKGYKGGLCAKGGFVCKCY [Mutation Y29L]”, for which the “Activity (antimicrobial activity relative to the activity of plectasin)” value is listed as 2.

“GFGCNGPWDEDDMQCHNHCKSIKGYKGGMCAKGGFVCKCY [Mutation Y29M]”: the “Activity (antimicrobial activity relative to the activity of plectasin)” value was 2.

As to “GFGCNGPWDEDDMQCHNHCKSIKGYKGGRCAKGGFVCKCY [Mutation Y29R]”, the “Activity (antimicrobial activity relative to the activity of plectasin)” value was determined as 3.

As for “GFGCNGPWDEDDMQCHNHCKSIKGYKGGSCAKGGFVCKCY [Mutation Y29S]”, the “Activity (antimicrobial activity relative to the activity of plectasin)” value worked out at 2.

On to “GFGCNGPWDEDDMQCHNHCKSIKGYKGGWCAKGGFVCKCY [Mutation Y29W]”, for which the “Activity (antimicrobial activity relative to the activity of plectasin)” value is on record as 3.

As for “GFGCNGPWDEDDMQCHNHCKSIKGYKGGYCAKEGFVCKCY [Mutation G33E]”, the “Activity (antimicrobial activity relative to the activity of plectasin)” value worked out at 2.

Consider “GFGCNGPWDEDDMQCHNHCKSIKGYKGGYCAKGGAVCKCY [Mutation F35A]”, for which the “Activity (antimicrobial activity relative to the activity of plectasin)” value came to 2.

For the sequence “GFGCNGPWDEDDMQCHNHCKSIKGYKGGYCAKGGFICKCY [Mutation V36I]”, the “Activity (antimicrobial activity relative to the activity of plectasin)” value came out at 2.

With “GFGCNGPWDEDDMQCHNHCKSIKGYKGGYCAKGGFKCKCY [Mutation V36K]”, the “Activity (antimicrobial activity relative to the activity of plectasin)” value was determined as 2.

As for “GFGCNGPWDEDDMQCHNHCKSIKGYKGGYCAKGGFMCKCY [Mutation V36M]”, the “Activity (antimicrobial activity relative to the activity of plectasin)” value turned out to be 3.

Turning to “GFGCNGPWDEDDMQCHNHCKSIKGYKGGYCAKGGFQCKCY [Mutation V36Q]”, the “Activity (antimicrobial activity relative to the activity of plectasin)” value was determined as 2.
